Measurements: article PMC10609273, “Radiosynthesis and Early Evaluation of a Positron Emission Tomography Imaging Probe [^18F]AGAL Targeting Alpha-Galactosidase A Enzyme for Fabry Disease” (Molecules, 2023)

Experiments:
[1] = target: T1, Chinese hamster ovary cell-derived wild type aGal A (CHO aGal A) (Homo sapiens, UniProt P06280); experiment: In vitro affinity assay: residual activity of CHO aGal A enzyme, hydrolysis of 4-methylumbelliferyl-α-D-galactopyranoside; assay type: biochemical; settings: 1 nM enzyme, 30 min preincubation at room temperature, pH 4.6, 5 mM 4-MUGA substrate
T1 construct: host or cells: Chinese hamster ovary (CHO) cells
T1 sequence (P06280 32-429): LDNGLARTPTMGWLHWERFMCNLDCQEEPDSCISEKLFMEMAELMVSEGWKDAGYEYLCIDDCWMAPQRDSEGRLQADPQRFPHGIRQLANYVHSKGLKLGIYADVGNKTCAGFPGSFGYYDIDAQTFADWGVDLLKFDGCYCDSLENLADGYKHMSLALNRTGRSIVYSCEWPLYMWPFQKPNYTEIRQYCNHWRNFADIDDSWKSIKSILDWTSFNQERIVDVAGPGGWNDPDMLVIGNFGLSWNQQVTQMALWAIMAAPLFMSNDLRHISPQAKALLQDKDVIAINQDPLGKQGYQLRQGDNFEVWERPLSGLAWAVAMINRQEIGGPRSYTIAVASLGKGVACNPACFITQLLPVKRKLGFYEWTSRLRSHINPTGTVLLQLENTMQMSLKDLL
Protocol: Using an in vitro affinity assay, measurement of residual activity by preincubating the enzyme with varying concentrations of the probe confirmed that the [^19F]
Figure 5 Residual activity of CHO aGal A enzyme measured via hydrolysis of substrate 4−methylumbelliferyl−α−D−galactopyranoside after 30 min of preincubation with AGAL probe.
The IC50 assessment for the aGal inhibitors was performed using the fluorescent substrate in a McIlvaine buffer at pH 4.6. The CHO aGal A enzyme at 1 nM was pre-incubated with different concentrations of the inhibitor or DMSO as control for 30 min at room temperature. The fluorescent substrate 4-methylumbelliferyl-α-D-galactopyranoside (Research Products International company, catalog number M65400, Mount Prospect, IL, USA) was then added to a final concentration of 5 mM. The reaction was quenched with 0.5 M sodium bicarbonate buffer, with pH 10.5, and plates were read using a SpectraMax reader at excitation and emission wavelengths of 360 and 460 nm, respectively. Data were corrected for background fluorescence and IC50 calculation was performed using an inhibitory dose–response curve fitting in GraphPad Prizm 8.0.

[2] = Plasma stability study, mouse; assay type: in vitro ADME
Protocol: (§1) Briefly, plasma stability was assessed by incubating compounds in the presence of human (pooled) and mouse (pooled) plasma (Bioreclamation, Westbury, NY, USA). All chemicals and reagents including control compounds were purchased from commercial sources such as Sigma-Aldrich or Toronto Research Chemicals. Plasma incubations were conducted by placing plasma (95 μL) in a 96-well microtiter plate and warming to 37 °C for 5 min. The reaction was initiated with the addition of the test article (5 μL of 20 μM), totaling 100 μL in incubation volume. At 0, 15, 30, 60, and 120 min time points, the reactions were terminated with the addition of acetonitrile-containing carbutamide (as an internal standard). The terminated samples were then centrifuged at 2 °C to pellet the protein, and the supernatant was injected onto an LC–MS. The test article was monitored for loss over time and the t1/2 was determined.

[3] = LogD determination, miniaturized shake flask method; assay type: physicochemical; settings: octanol/buffer (1:1); octanol/buffer pH 7.4 (1:1), 66.6 μM
Protocol: The distribution of AGAL between an organic solvent (octanol) and aqueous buffer (pH 7.4) was tested using the miniaturized shake flask method in octanol/buffer (1:1). This was accomplished by spiking the test compound (prepared in DMSO) into pre-equilibrated octanol/buffer phases at a concentration of 66.6 μM followed by shaking at 880 rpm for 1 h. The concentration of the test compound in both phases was analyzed using LC–MS/MS.

[4] = In vitro liver microsomal metabolism study, rat; assay type: in vitro ADME; settings: rat liver microsomes
Protocol: (§2) Metabolic stability was assessed by incubating compounds in the presence of human, rat, and mouse liver microsomal fractions (Xenotech, Kansas City, KS, USA). All chemicals and reagents, including control compounds, were purchased from commercial sources such as Sigma-Aldrich (St. Louis, MO, USA) or Toronto Research Chemicals (North York, ON, Canada). Liver microsomal incubations were conducted with 100 mM phosphate buffer, 0.5 mg/mL of liver microsomal protein, 2 mM NADPH, 2.5 mM UDPGA, 3 mM MgCl2, alamethicin, and 1 μM test article for a total incubation volume of 80 µL. All reagents except the liver microsomes were mixed together and aliquoted (60 μL) into 96-well plates. The reaction was initiated by adding the microsomes (20 μL). At 0, 3, 7, 12, 20, and 30 min time points, the reactions were terminated with the addition of acetonitrile-containing carbutamide (as an internal standard). The terminated samples were then centrifuged at 2 °C to pellet the protein and the supernatant was injected onto an LC–MS. The test article was monitored for loss over time and the t1/2 was determined. The calculated t1/2 was then used as described below to determine the Eh (hepatic extraction ratio) for both human and rat.
(§3) The intrinsic clearance (CLint), hepatic clearance (CLh), and hepatic extraction ratio (Eh) were calculated using the equations below. CLint = (0.693/t1/2 in vitro) × (mL incubation volume/mg microsomal protein) × (X mg of microsomal protein/gram of liver) × (Y g of liver/kg of body weight)(1) CLh = Q × CLint/Q + CLint(2) Eh = CLh/Q(3) where: • CLint = intrinsic clearance (calculated from microsomal incubations) • X = 40 for human, 41.5 for rat and 45 for mouse • Y = 21.4 for human, 40 for rat and 50 for mouse • t1/2 = half-life • CLh = hepatic clearance • Q = liver blood flow rate = 1.24 L/h/kg for human, 4.8 L/h/kg for rat, and 5.4 L/h/kg for mouse • Eh = hepatic extraction ratio • CLh = hepatic clearance

[5] = Plasma stability study, human; assay type: in vitro ADME
Protocol: as §1

[6] = In vitro liver microsomal metabolism study, human; assay type: in vitro ADME; settings: human liver microsomes
Protocol: as §2, §3

O=C(CCCCCCCn1cc(CCCF)nn1)N1[C@@H]2[C@H](O)[C@@H](O)[C@@H](O)[C@@H](CO)[C@@H]21 [AGAL]
IC50 [1]: 30 nM
Plasma Half-Life, t1/2 ([2]; 37 °C): 9.83 min
parent remaining ([2]; 30 min post-incubation): 18%
half-life at 1 µM ([2]; mouse, pooled plasma, 37 °C, read-out: Plasma Half-Life, t1/2): < 0.167 h
logD at 1 h [3]: -0.43
CLh [4]: 55.7 mL/min/kg
Eh (hepatic extraction ratio) [4]: 0.695
microsomal stability, clearance in words [4]: moderately cleared
CLint scaled at 1 µM ([4]; 1 μM, NADPH + UDPGA): 182 mL/min/kg
parent remaining ([5]; 30 min post-incubation): 93%
half-life at 1 µM ([5]; pooled plasma, 37 °C, read-out: Plasma Half-Life, t1/2): 3.47 h
CLh [6]: <4.68 mL/min/kg
Eh (hepatic extraction ratio) [6]: <0.226
microsomal stability, clearance in words [6]: minimally cleared
CLint scaled at 1 µM ([6]; 1 μM, NADPH + UDPGA): < 6.05 mL/min/kg
